From patent publication US20240228468A1, “N-(6-((OCTAHYDROCYCLOPENTA[C]PYRROL-5-YI)AMINO)PYRIDAZIN-3-YL)PHENYL)CARBOXAMIDE AND (6- ((OCTAHYDROCYCLOPENTA[C]PYRROL-5-YL)AMINO)PYRIDAZIN-3-YL)BENZAMIDE DERIVATIVES AS MACHR M4 ANTAGONISTS FOR THE TREATMENT OF NEURODEGENERATIVE DISORDERS” (Vanderbilt University, priority 2021, published 2024)
Read-outs that look alike come from different tables or passages of the source.

Target: T1, Human M4 (Homo sapiens, UniProt P08173)
T1 construct: expressed in transfected cells; host or cells: CHO-K1 (ATCC), co-transfected with chimeric G protein Gqi5
T1 sequence (P08173 1-479): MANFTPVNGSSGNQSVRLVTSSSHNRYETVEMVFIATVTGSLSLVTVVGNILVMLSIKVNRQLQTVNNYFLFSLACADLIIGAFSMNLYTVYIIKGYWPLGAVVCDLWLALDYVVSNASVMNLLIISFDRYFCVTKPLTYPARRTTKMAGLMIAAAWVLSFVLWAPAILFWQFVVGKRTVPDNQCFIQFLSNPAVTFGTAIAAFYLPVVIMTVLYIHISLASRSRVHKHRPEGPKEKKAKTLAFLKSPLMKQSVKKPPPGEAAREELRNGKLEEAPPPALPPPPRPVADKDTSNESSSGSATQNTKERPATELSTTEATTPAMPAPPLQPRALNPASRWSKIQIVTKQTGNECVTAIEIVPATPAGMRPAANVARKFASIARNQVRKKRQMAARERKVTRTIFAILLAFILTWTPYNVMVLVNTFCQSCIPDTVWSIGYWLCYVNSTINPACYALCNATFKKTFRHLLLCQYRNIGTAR
Experiment: mAChR M4 cell-based functional assay (calcium flux, antagonism of EC80 acetylcholine response)
Conditions: for IC50: concentration-dependent decrease of the response elicited by an EC80 concentration of acetylcholine
Procedure, shortened: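 CHO-K1 cells stably expressing human M4 with chimeric Gqi5, Fluo-4 loaded; calcium flux read on FDSS. Compound (10-point, 1:3 series) added first, then EC20 acetylcholine at 143 s and EC80 at 268 s. IC50 from concentration-dependent decrease of EC80 response, four-parameter logistic fit.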

[1] = M4/Gqi5/CHO-K1 cells, % ACh maximum at 30 μM, read-out: Human M4 Emin (% ACh maximum at 30 μM)

SMILES	remaining activity at 30 µM [1] [%]	IC50 (M4/Gqi5/CHO-K1 cells) [nM]	remaining activity at 30 µM (CHO-K1, read-out: Human M4 Emin (% ACh maximum at 30 μM)) [%]
CCC(=O)Nc1ccccc1-c1ccc(N[C@H]2C[C@@H]3CN(CC4CCOCC4)C[C@@H]3C2)nn1 [Compound A44, N-(2-(6-(((3aR,5s,6aS)-2-((tetrahydro-2H-pyran-4-yl)methyl)octahydrocyclopenta[c]pyrrol-5-yl)amino)pyridazin-3-yl)phenyl)propionamide]	4	67	–
CNC(=O)c1ccccc1-c1ccc(N[C@H]2C[C@@H]3CN(CC4CCOCC4)C[C@@H]3C2)nn1 [Compound A45, N-methyl-2-(6-(((3aR,5s,6aS)-2-((tetrahydro-2H-pyran-4-yl)methyl)octahydrocyclopenta[c]pyrrol-5-yl)amino)pyridazin-3-yl)benzamide]	6	180	–
[2H]C([2H])(C1CCOCC1)N1C[C@H]2C[C@H](Nc3ccc(-c4ccccc4NC(=O)CC)nn3)C[C@H]2C1 [Compound A50, N-(2-(6-(((3aR,5s,6aS)-2-((tetrahydro-2H-pyran-4-yl)methyl-d2)octahydrocyclopenta[c]pyrrol-5-yl)amino)pyridazin-3-yl)phenyl)propionamide]	4	56	–
CCNC(=O)c1ccc(-c2ccc(N[C@H]3C[C@@H]4CN(CC5CCOCC5)C[C@@H]4C3)nn2)cc1 [Compound A51, N-ethyl-4-(6-(((3aR,5s,6aS)-2-((tetrahydro-2H-pyran-4-yl)methyl)octahydrocyclopenta[c]pyrrol-5-yl)amino)pyridazin-3-yl)benzamide]	3	2.1	–
CCNC(=O)c1ccccc1-c1ccc(N[C@H]2C[C@@H]3CN(CC4CCOCC4)C[C@@H]3C2)nn1 [Compound A58, N-ethyl-2-(6-(((3aR,5s,6aS)-2-((tetrahydro-2H-pyran-4-yl)methyl)octahydrocyclopenta[c]pyrrol-5-yl)amino)pyridazin-3-yl)benzamide]	6	200	–
[2H]C([2H])(C1CCOCC1)N1C[C@H]2C[C@H](Nc3ccc(-c4ccccc4C(=O)NCC)nn3)C[C@H]2C1 [Compound A59, N-ethyl-2-(6-(((3aR,5s,6aS)-2-((tetrahydro-2H-pyran-4-yl)methyl-d2)octahydrocyclopenta[c]pyrrol-5-yl)amino)pyridazin-3-yl)benzamide]	6	170	–
[2H]C([2H])([2H])NC(=O)c1ccccc1-c1ccc(N[C@H]2C[C@@H]3CN(CC4CCOCC4)C[C@@H]3C2)nn1 [Compound A60, N-(methyl-d3)-2-(6-(((3aR,5s,6aS)-2-((tetrahydro-2H-pyran-4-yl)methyl)octahydrocyclopenta[c]pyrrol-5-yl)amino)pyridazin-3-yl)benzamide]	6	210	–
CNC(=O)c1ccc(-c2ccc(N[C@H]3C[C@@H]4CN(CC5CCOCC5)C[C@@H]4C3)nn2)cc1 [Compound A63, N-methyl-4-(6-(((3aR,5s,6aS)-2-((tetrahydro-2H-pyran-4-yl)methyl)octahydrocyclopenta[c]pyrrol-5-yl)amino)pyridazin-3-yl)benzamide]	3	1.2	–
[2H]C([2H])(C1CCOCC1)N1C[C@H]2C[C@H](Nc3ccc(-c4cc(F)c(C(N)=O)c(F)c4F)nn3)C[C@H]2C1 [Compound A65, 2,3,6-trifluoro-4-(6-(((3aR,5s,6aS)-2-((tetrahydro-2H-pyran-4-yl)methyl-d2)octahydrocyclopenta[c]pyrrol-5-yl)amino)pyridazin-3-yl)benzamide]	5	6.3	–
[2H]C([2H])(C1CCOCC1)N1C[C@H]2C[C@H](Nc3ccc(-c4cc(F)c(C(=O)NC)c(F)c4F)nn3)C[C@H]2C1 [Compound A66, 2,3,6-trifluoro-N-methyl-4-(6-(((3aR,5s,6aS)-2-((tetrahydro-2H-pyran-4-yl)methyl-d2)octahydrocyclopenta[c]pyrrol-5-yl)amino)pyridazin-3-yl)benzamide]	4	16	–
[2H]C([2H])(C1CCOCC1)N1C[C@H]2C[C@H](Nc3ccc(-c4cc(F)c(C(=O)N(C)C)c(F)c4F)nn3)C[C@H]2C1 [Compound A67, 2,3,6-Trifluoro-N,N-dimethyl-4-(6-(((3aR,5s,6aS)-2-((tetrahydro-2H-pyran-4-yl)methyl-d2)octahydrocyclopenta[c]pyrrol-5-yl)amino)pyridazin-3-yl)benzamide]	–	11	4
[2H]C([2H])(C1CCOCC1)N1C[C@H]2C[C@H](Nc3ccc(-c4cc(F)c(C(N)=O)c(F)c4)nn3)C[C@H]2C1 [Compound A68, 2,6-difluoro-4-(6-(((3aR,5s,6aS)-2-((tetrahydro-2H-pyran-4-yl)methyl-d2)octahydrocyclopenta[c]pyrrol-5-yl)amino)pyridazin-3-yl)benzamide]	4	11	–
[2H]C([2H])(C1CCOCC1)N1C[C@H]2C[C@H](Nc3ccc(-c4cc(C(=O)NC)ccc4F)nn3)C[C@H]2C1 [Compound A69, 4-fluoro-N-methyl-3-(6-(((3aR,5s,6aS)-2-((tetrahydro-2H-pyran-4-yl)methyl-d2)octahydrocyclopenta[c]pyrrol-5-yl)amino)pyridazin-3-yl)benzamide]	5	120	–

Second part, led by results:

remaining activity at 30 µM [1] [%]	IC50 (M4/Gqi5/CHO-K1 cells) [nM]	SMILES	remaining activity at 30 µM (CHO-K1, read-out: Human M4 Emin (% ACh maximum at 30 μM)) [%]
4	20	[2H]C([2H])(C1CCOCC1)N1C[C@H]2C[C@H](Nc3ccc(-c4cccc(C(=O)NCC)c4)nn3)C[C@H]2C1 [Compound A46, N-ethyl-3-(6-(((3aR,5s,6aS)-2-((tetrahydro-2H-pyran-4-yl)methyl-d2)octahydrocyclopenta[c]pyrrol-5-yl)amino)pyridazin-3-yl)benzamide]	–
4	74	[2H]C([2H])(C1CCOCC1)N1C[C@H]2C[C@H](Nc3ccc(-c4ccccc4C(=O)NC)nn3)C[C@H]2C1 [Compound A48, N-methyl-2-(6-(((3aR,5s,6aS)-2-((tetrahydro-2H-pyran-4-yl)methyl-d2)octahydrocyclopenta[c]pyrrol-5-yl)amino)pyridazin-3-yl)benzamide]	–
5	7.8	[2H]C([2H])(C1CCOCC1)N1C[C@H]2C[C@H](Nc3ccc(-c4ccc(C(=O)NCC)cc4)nn3)C[C@H]2C1 [Compound A52, N-ethyl-4-(6-(((3aR,5s,6aS)-2-((tetrahydro-2H-pyran-4-yl)methyl-d2)octahydrocyclopenta[c]pyrrol-5-yl)amino)pyridazin-3-yl)benzamide]	–
4	200	[2H]C([2H])([2H])NC(=O)c1ccccc1-c1ccc(N[C@H]2C[C@@H]3CN(C([2H])([2H])C4CCOCC4)C[C@@H]3C2)nn1 [Compound A53, N-(methyl-d3)-2-(6-(((3aR,5s,6aS)-2-((tetrahydro-2H-pyran-4-yl)methyl-d2)octahydrocyclopenta[c]pyrrol-5-yl)amino)pyridazin-3-yl)benzamide]	–
4	43	CCC(=O)Nc1cccc(-c2ccc(N[C@H]3C[C@@H]4CN(CC5CCOCC5)C[C@@H]4C3)nn2)c1 [Compound A56, N-(3-(6-(((3aR,5s,6aS)-2-((tetrahydro-2H-pyran-4-yl)methyl)octahydrocyclopenta[c]pyrrol-5-yl)amino)pyridazin-3-yl)phenyl)propionamide]	–
3	37	[2H]C([2H])(C1CCOCC1)N1C[C@H]2C[C@H](Nc3ccc(-c4cccc(NC(=O)CC)c4)nn3)C[C@H]2C1 [Compound A57, N-(3-(6-(((3aR,5s,6aS)-2-((tetrahydro-2H-pyran-4-yl)methyl-d2)octahydrocyclopenta[c]pyrrol-5-yl)amino)pyridazin-3-yl)phenyl)propionamide]	–
3	12	[2H]C([2H])([2H])C(=O)Nc1cccc(-c2ccc(N[C@H]3C[C@@H]4CN(CC5CCOCC5)C[C@@H]4C3)nn2)c1 [Compound A61, N-(3-(6-(((3aR,5s,6aS)-2-((tetrahydro-2H-pyran-4-yl)methyl)octahydrocyclopenta[c]pyrrol-5-yl)amino)pyridazin-3-yl)phenyl)acetamide-2,2,2-d3]	–
3	13	[2H]C([2H])([2H])C(=O)Nc1cccc(-c2ccc(N[C@H]3C[C@@H]4CN(C([2H])([2H])C5CCOCC5)C[C@@H]4C3)nn2)c1 [Compound A62, N-(3-(6-(((3aR,5s,6aS)-2-((tetrahydro-2H-pyran-4-yl)methyl-d2)octahydrocyclopenta[c]pyrrol-5-yl)amino)pyridazin-3-yl)phenyl)acetamide-2,2,2-d3]	–
